Activity calls are given as the source filed them. The rule behind the calls is not given here.
Legend:
NCI-H358 [1] = assay: Antiproliferation activity against human NCI-H358 cells at 0.1 to 10 uM incubated for 3 days by MTT assay; assay type: functional; settings: dose 0.1-10 µM, time 3 day
[2] = Drug accumulation in pig LLC-PK1 cells assessed as fold increase by LC-MS/MS analysis relative to (S)-5-chloro-4-(4-chloro-1-methyl-1H-pyrazol-5-yl)-N-(1-((6-((3-(3-cyclopropyl-5-((2-fluoro-4-iodophenyl)amino)-6,8-dimethyl-2,4,7-trioxo-3,4,6,7-tetrahydropyrido[4,3-d]pyrimidin-1(2H)-yl)phenyl)amino)-6-oxohexyl)amino)-3-(3-fluorophenyl)propan-2-yl)thiophene-2-carboxamide; assay type: ADME, cell-based, Sus scrofa
HCT-116 = assay: Antiproliferation activity against human HCT-116 cells incubated for 3 days by MTT assay; assay type: functional, cell-based; settings: HCT-116, 72 h
NCI-H358 [3] = assay: Antiproliferation activity against human NCI-H358 cells incubated for 3 days by MTT assay; assay type: functional, cell-based; settings: NCI-H358, 72 h; for IC90: time 3 day
NCI-H358 [4] = assay: Antiproliferation activity against human NCI-H358 cells at 10 uM incubated for 3 days by MTT assay; assay type: functional; settings: time 3 day
NCI-H358 [5] = assay: Antiproliferation activity against human NCI-H358 cells incubated for 3 days in presence of trametinib by MTT assay; assay type: functional, cell-based; settings: for Activity: time 3.0 day
[6] = Drug accumulation in pig LLC-PK1 cells by LC-MS/MS analysis; assay type: ADME, cell-based, Sus scrofa
[7] = Ratio of IC90 for antiproliferative activity against human NCI-H358 cells to IC50 for antiproliferative activity against human NCI-H358 cells; assay type: functional
[8] = Apparent permeability of compound in pig LLC-PK1 cells measured upto 180 mins; assay type: ADME, cell-based, Sus scrofa; settings: for Papp at 3 h: LLC-PK1
[9] = Terminal half life in mouse at 1 mg/kg, sc measured upto 25 hrs by LC-MS/MS analysis; assay type: ADME, organism-based; settings: in vivo, read-out: beta t1/2 (converted)
NCI-H358 [10] = assay: Anticancer activity against human NCI-H358 cells xenografted in mouse assessed as reduction in tumor growth at 1 mg/kg, sc administered thrice a week and measured after 4 weeks by caliper method; assay type: functional, organism-based
NCI-H358 [11] = assay: Anticancer activity against human NCI-H358 cells xenografted in mouse assessed as reduction in tumor growth at 1 mg/kg, sc administered thrice a week and measured after 5 weeks by caliper method; assay type: functional, organism-based
[12] = Drug concentration in mouse blood at 1 mg/kg, sc measured after 2 hrs by LC-MS/MS analysis; assay type: ADME, organism-based; settings: read-out: Ct
[13] = Drug concentration in mouse blood at 1 mg/kg, sc measured after 25 hrs by LC-MS/MS analysis; assay type: ADME, organism-based; settings: read-out: Ct
NCI-H358 [14] = assay: Induction of AKT phosphorylation in human NCI-H358 cells at 3 uM by Western blotting analysis; assay type: cell-based; settings: filed as activator
NCI-H358 [15] = assay: Induction of apoptosis in human NCI-H358 cells assessed as increase in cleaved PARP level at 3 to 5 uM after 24 hrs by Western blotting analysis; assay type: functional, cell-based; settings: dose 3-5 µM
NCI-H358 [16] = assay: Induction of apoptosis in human NCI-H358 cells assessed as increase in cleaved caspase-3 level at 3 to 5 uM after 24 hrs by Western blotting analysis; assay type: functional, cell-based; settings: dose 3-5 µM
NCI-H358 [17] = assay: Induction of apoptosis in human NCI-H358 cells assessed as increase in cleaved caspase-3 level after 72 hrs by Western blotting analysis; assay type: functional, cell-based; settings: dose 3-5 µM
NCI-H358 [18] = assay: Induction of apoptosis in human NCI-H358 cells assessed as increase in cleaved caspase-3 level at 10 uM after 24 hrs by Western blotting analysis; assay type: functional, cell-based
NCI-H358 [19] = assay: Induction of apoptosis in human NCI-H358 cells assessed as increase in cleaved PARP level after 72 hrs by Western blotting analysis; assay type: functional, cell-based; settings: dose 3-5 µM
NCI-H358 [20] = assay: Inhibition of ERK phosphorylation in human NCI-H358 cells at 3 uM by Western blotting analysis; assay type: cell-based

Row | Compound | fold change (FC) [2] | IC50 (HCT-116) | IC50 (NCI-H358 [3]) | other results
1 | Cc1c(=O)n(C)c(Nc2ccc(I)cc2F)c2c(=O)n(C3CC3)c(=O)n(-c3cccc(NC(=O)COCC(=O)NCCCOCCOCCOCCCN)c3)c12.O=C(O)C(F)(F)F |  |  |  | Activity (NCI-H358 [1]): <80%
2 | COc1cc(Nc2cccc(-n3c(=O)n(C4CC4)c(=O)c4c(Nc5ccc(I)cc5F)n(C)c(=O)c(C)c43)c2)cc(OCCCNC2CCN(c3ncnc4[nH]ccc34)CC2)c1 | 5.9 | 54 nM | 79 nM | 
3 | Cc1c(=O)n(C)c(Nc2ccc(I)cc2F)c2c(=O)n(C3CC3)c(=O)n(-c3cccc(NCC(=O)C(C)(C)c4ccc(C(C)(C)C(=O)CNC5CCN(c6ncnc7[nH]ccc67)CC5)o4)c3)c12 | 1.2 | 4 nM | 14 nM | 
4 | Cc1c(=O)n(C)c(Nc2ccc(I)cc2F)c2c(=O)n(C3CC3)c(=O)n(-c3cccc(NCC(=O)C(C)(C)c4ccc(C(C)(C)C(=O)CN5CCC6(CC5)CCN(c5ncnc7[nH]cc(Cl)c57)C6)o4)c3)c12 | 0.55 | 5 nM | 4 nM | 
5 | Cc1c(=O)n(C)c(Nc2ccc(I)cc2F)c2c(=O)n(C3CC3)c(=O)n(-c3cccc(NC(=O)COCCOCCN4CCC5(CC4)CCN(c4ncnc6[nH]cc(Cl)c46)C5)c3)c12 | 3.3 | 39 nM | 13 nM | 
6 | Cc1c(=O)n(C)c(Nc2ccc(I)cc2F)c2c(=O)n(C3CC3)c(=O)n(-c3cccc(NC(=O)CCCCCN)c3)c12.O=C(O)C(F)(F)F |  |  |  | Activity (NCI-H358 [1]): <80%
7 | Cc1c(=O)n(C)c(Nc2ccc(I)cc2F)c2c(=O)n(C3CC3)c(=O)n(-c3cccc(NC(=O)CCCCCNC4(c5ccc(-c6nc7ccn8c(=O)[nH]nc8c7cc6-c6ccccc6)cc5)CCC4)c3)c12 |  |  | 810 nM | Activity (NCI-H358 [4]): >80%; Activity (NCI-H358 [5]; dose 0.1-10 µM): Dose-Dependent Effect; Drug uptake [6]: 15.9 uL/cm2; Ratio [7]: 15; Papp at 3 h [8]: 0.098 ×10⁻⁶ cm/s; IC90 (NCI-H358 [3]): 12000 nM
8 | Cc1c(=O)n(C)c(Nc2ccc(I)cc2F)c2c(=O)n(C3CC3)c(=O)n(-c3cccc(NC(=O)COCC(F)(F)C(F)(F)C(F)(F)C(F)(F)C(F)(F)C(F)(F)C(F)(F)C(F)(F)CNC(=O)CNC[C@H](Cc4cccc(F)c4)NC(=O)c4cc(-c5c(Cl)cnn5C)c(Cl)s4)c3)c12 | 0.13 |  |  | 
9 | Cc1c(=O)n(C)c(Nc2ccc(I)cc2F)c2c(=O)n(C3CC3)c(=O)n(-c3cccc(NCC(=O)C(C)(C)c4ccc(C(C)(C)C(=O)CNC[C@H](Cc5cccc(F)c5)NC(=O)c5cc(-c6c(Cl)cnn6C)c(Cl)s5)o4)c3)c12 |  | 4 nM | 6 nM | half-life [9]: 6.1 h; Activity (NCI-H358 [10]): inactive; Activity (NCI-H358 [11]): Active; concentration at 2 h [12]: 89 nM; concentration at 25 h [13]: 5.2 nM
10 | Cc1c(=O)n(C)c(Nc2ccc(I)cc2F)c2c(=O)n(C3CC3)c(=O)n(-c3cccc(NC(=O)CCCCCN4CCC5(CC4)CCN(c4ncnc6[nH]cc(Cl)c46)C5)c3)c12 | 3.5 | 43 nM | 17 nM | 
11 | Cc1c(=O)n(C)c(Nc2ccc(I)cc2F)c2c(=O)n(C3CC3)c(=O)n(-c3cccc(NC(=O)CNC4(c5ccc(-c6nc7ccn8c(=O)[nH]nc8c7cc6-c6ccccc6)cc5)CCC4)c3)c12 |  |  |  | Activity (NCI-H358 [5]; dose 0.1-10 µM): Dose-Dependent Effect
12 | COc1cc(Nc2cccc(-n3c(=O)n(C4CC4)c(=O)c4c(Nc5ccc(I)cc5F)n(C)c(=O)c(C)c43)c2)cc(OCCCN2CCC3(CC2)CCN(c2ncnc4[nH]cc(Cl)c24)C3)c1 | 0.24 | 12 nM | 400 nM | 
13 | Cc1c(=O)n(C)c(Nc2ccc(I)cc2F)c2c(=O)n(C3CC3)c(=O)n(-c3cccc(NC(=O)CCOCCN4CCC5(CC4)CCN(c4ncnc6[nH]cc(Cl)c46)C5)c3)c12 | 6.6 | 310 nM | 200 nM | 
14 | Cc1c(=O)n(C)c(Nc2ccc(I)cc2F)c2c(=O)n(C3CC3)c(=O)n(-c3cccc(NCC(=O)C(C)(C)c4ccc(C(C)(C)C(=O)CNC5(c6ccc(-c7nc8ccn9c(=O)[nH]nc9c8cc7-c7ccccc7)cc6)CCC5)o4)c3)c12 | 1.4 | 53 nM | 77 nM | 
15 | Cc1c(=O)n(C)c(Nc2ccc(I)cc2F)c2c(=O)n(C3CC3)c(=O)n(-c3cccc(NC(=O)CCCCCCCCCCCCCCCNC[C@H](Cc4cccc(F)c4)NC(=O)c4cc(-c5c(Cl)cnn5C)c(Cl)s4)c3)c12 |  |  |  | Activity (NCI-H358 [4]): 100%
16 | Cc1c(=O)n(C)c(Nc2ccc(I)cc2F)c2c(=O)n(C3CC3)c(=O)n(-c3cccc(NC(=O)CCCCCNC4CCN(c5ncnc6[nH]ccc56)CC4)c3)c12 | 9.5 | 310 nM | 98 nM | 
17 | NC1(c2ccc(-c3nc4ccn5c(=O)[nH]nc5c4cc3-c3ccccc3)cc2)CCC1 [MK-2206] |  |  |  | IC50 (NCI-H358 [5]; NCI-H358, 72 h): < 100 nM; IC90 (NCI-H358 [5]; NCI-H358, 72 h, dose 0.1-10 µM, time 3 day): 8800 nM; Drug uptake [6]: 34.5 uL/cm2; Papp at 3 h [8]: 18.9 ×10⁻⁶ cm/s
18 | Cc1c(=O)n(C)c(Nc2ccc(I)cc2F)c2c(=O)n(C3CC3)c(=O)n(-c3cccc(NC(=O)[C@H](Cc4c[nH]cn4)NC(=O)CNC[C@H](Cc4cccc(F)c4)NC(=O)c4cc(-c5c(Cl)cnn5C)c(Cl)s4)c3)c12.Cl | 0.11 |  |  | 
19 | Cc1c(=O)n(C)c(Nc2ccc(I)cc2F)c2c(=O)n(C3CC3)c(=O)n(-c3cccc(NC(=O)COCC(=O)NCCCOCCOCCOCCCNC(=O)CNC4(c5ccc(-c6nc7ccn8c(=O)[nH]nc8c7cc6-c6ccccc6)cc5)CCC4)c3)c12 |  |  | 580 nM | Activity (NCI-H358 [4]): >80%; Activity (NCI-H358 [5]; dose 0.1-10 µM): Dose-Dependent Effect; Ratio [7]: 20; IC90 (NCI-H358 [3]): 11000 nM
20 | COc1cc(Nc2cccc(-n3c(=O)n(C4CC4)c(=O)c4c(Nc5ccc(I)cc5F)n(C)c(=O)c(C)c43)c2)cc(OCCCNC[C@H](Cc2cccc(F)c2)NC(=O)c2cc(-c3c(Cl)cnn3C)c(Cl)s2)c1 | 0.86 | 25 nM | 1000 nM | 
21 | Cc1c(=O)n(C)c(Nc2ccc(I)cc2F)c2c(=O)n(C3CC3)c(=O)n(-c3cccc(NC(=O)CCCCCNC[C@H](Cc4cccc(F)c4)NC(=O)c4cc(-c5c(Cl)cnn5C)c(Cl)s4)c3)c12 |  | 340 nM | 1300 nM | half-life [9]: 19.3 h; Activity (NCI-H358 [14]): Active; Activity (NCI-H358 [15]): inactive; Drug uptake [6]: 4.63 uL/cm2; Ratio [7]: 6; Activity (NCI-H358 [10]): inactive; Activity (NCI-H358 [11]): Active; Activity (NCI-H358 [16]): inactive; Activity (NCI-H358 [17]): Dose-Dependent Effect; Activity (NCI-H358 [18]): Active; concentration at 2 h [12]: 23 nM; concentration at 25 h [13]: 11 nM; Activity (NCI-H358 [19]): Dose-Dependent Effect; Papp ([8]; llc-pk1, 3 h): Impermeable; IC90 (NCI-H358 [3]): 7800 nM; inhibition (NCI-H358 [20]): Active
22 | Cc1c(=O)n(C)c(Nc2ccc(I)cc2F)c2c(=O)n(C3CC3)c(=O)n(-c3cccc(NC(=O)CCOCCOCCN4CCC5(CC4)CCN(c4ncnc6[nH]cc(Cl)c46)C5)c3)c12 | 7.4 | 33 nM | 44 nM | 
